Values quoted from earlier work as cited in US20120225135A1 (priority 2010, published 2012).

Tested on: biofilm
Details: cited from earlier work

**Q.** With `O=CCCCC=O` [Glutaraldehyde] as the compound, how does the effect on biofilm read?
**A.** Its effect on biofilm is “no effect on biofilm”.

**Q.** With `O=[O+][O-]` [Ozone] as the compound, how does the effect on biofilm read?
**A.** Its effect on biofilm is “kill cells in the biofilm without any detachment of the biofilm”.

**Q.** With `OO` [hydrogen peroxide] as the compound, how does the “effect on biofilm detachment” value read?
**A.** The value was “very poor to no effect”.

**Q.** For `CC(=O)OO` [peracetic acids], which “effect on biofilm detachment” value is on record?
**A.** The value was “very poor to no effect”.

**Q.** For chloramines, which detachment of biofilms is on record?
**A.** The detachment of biofilms was “very effective”.
